From article PMC10388696 (Clinical cancer research : an official journal of the …, 2023)

Columns and labels:
[1] = Clinical plasma pharmacokinetics; details: human, in vivo
advanced solid tumors = test: Tumor response by RECIST 1.1; type: in vivo, human; details: monotherapy Part A, 20 mg, one patient with peritoneal mesothelioma
T-cell activation = details: in vitro; cited from earlier work
[2] = Safety: treatment-related AEs and DLTs; type: in vivo
[3] = tested on: cancer cell proliferation; details: in vitro; cited from earlier work
PI3K-γ = details: cited from earlier work
[4] = tested on: multiple syngeneic models; details: in vivo; cited from earlier work
[5] = across preclinical species; cited from earlier work
[6] = QT interval corrected with Fridericia's method; type: in vivo, human; details: any dose level (data not shown)

Question: With `C[C@H](NC(=O)c1c(N)nn2cccnc12)c1cc2cccc(C#Cc3cnn(C)c3)c2c(=O)n1-c1ccccc1` [Eganelisib] as the compound, how does the half-life ([1]; 10 mg, terminal t1/2) read?
Answer: The half-life was 10.6 to 23.6 h.

Question: What about the half-life ([1]; 10 mg, terminal t1/2, geometric mean) of the same compound?
Answer: The half-life was 39.8 h.

Question: And the “dose proportionality of exposure (Cmax and AUC)” value ([1]; 60 mg)?
Answer: Its value is “approximately dose proportional”.

Question: And the half-life ([1]; effective t1/2 calculated from the AR estimate)?
Answer: Its half-life is 9.3 to 25.7 h.

Question: And the Tmax ([1]; po)?
Answer: Its Tmax is 1 to 6 h.

Question: What about the half-life ([1]; t1/2) of the same compound?
Answer: Its half-life is 10.6 to 39.8 h.

Question: What about the “direct effect on T-cell activation” value (T-cell activation) of the same compound?
Answer: The value was “no direct effect”.

Question: What about the “ALT increased, treatment-related, any grade” value ([2]; human, in vivo) of the same compound?
Answer: The value was 3 (16%) n (%).

Question: And the “AST increased, treatment-related, any grade” value ([2]; human, in vivo)?
Answer: The value was 4 (21%) n (%).

Question: What about the “Fatigue, treatment-related, any grade” value ([2]; human, in vivo) of the same compound?
Answer: The value was 2 (11%) n (%).

Question: What about the “Grade ≥3 treatment-related AEs” value ([2]; human, in vivo) of the same compound?
Answer: Its value is 2 (11%) n (%).

Question: What about the “Headache, treatment-related, any grade” value ([2]; human, in vivo) of the same compound?
Answer: The value was 2 (11%) n (%).

Question: And the “Rash, treatment-related, any grade” value ([2]; human, in vivo)?
Answer: Its value is 3 (16%) n (%).

Question: And the “hepatic AEs” value ([2]; human, in vivo)?
Answer: The value was 33%.

Question: What about the “increased ALT, treatment-related grade ≥3” value ([2]; human, in vivo) of the same compound?
Answer: The value was 18%.

Question: And the “increased AST, treatment-related grade ≥3” value ([2]; human, in vivo)?
Answer: Its value is 18%.

Question: What about the “increased alkaline phosphatase, treatment-related grade ≥3” value ([2]; human, in vivo) of the same compound?
Answer: Its value is 5%.

Question: And the “patients who discontinued for a treatment-related AE” value ([2]; human, in vivo)?
Answer: The value was 8%.

Question: What about the “patients with dose reduction for a treatment-related AE” value ([2]; human, in vivo) of the same compound?
Answer: The value was 3%.

Question: And the “treatment-related SAEs” value ([2]; human, in vivo)?
Answer: The value was 2 (5%) n (%).

Question: What about the “treatment-related serious adverse events” value ([2]; human, in vivo) of the same compound?
Answer: Its value is 5%.

Question: What about the “grade 5 treatment-related AEs” value ([2]; monotherapy) of the same compound?
Answer: Its value is “no grade 5 treatment-related AEs”.

Question: What about the MTD ([2]; monotherapy, 10–60 mg QD) of the same compound?
Answer: The MTD was “no dose of eganelisib monotherapy met MTD criteria”.

Question: What about the “tumor growth in syngeneic models” value [4] of the same compound?
Answer: The value was “tumor growth delay”.

Question: And the oral bioavailability [5]?
Answer: Its oral bioavailability is ≥ 31%.

Question: And the “effects on QTcF” value [6]?
Answer: Its value is “No clinically relevant effects”.
